In assay [1] the target is T1, Beta-galactoside alpha-2,6-sialyltransferase 1 (Homo sapiens, UniProt P15907).
T1 sequence (P15907 whole entry): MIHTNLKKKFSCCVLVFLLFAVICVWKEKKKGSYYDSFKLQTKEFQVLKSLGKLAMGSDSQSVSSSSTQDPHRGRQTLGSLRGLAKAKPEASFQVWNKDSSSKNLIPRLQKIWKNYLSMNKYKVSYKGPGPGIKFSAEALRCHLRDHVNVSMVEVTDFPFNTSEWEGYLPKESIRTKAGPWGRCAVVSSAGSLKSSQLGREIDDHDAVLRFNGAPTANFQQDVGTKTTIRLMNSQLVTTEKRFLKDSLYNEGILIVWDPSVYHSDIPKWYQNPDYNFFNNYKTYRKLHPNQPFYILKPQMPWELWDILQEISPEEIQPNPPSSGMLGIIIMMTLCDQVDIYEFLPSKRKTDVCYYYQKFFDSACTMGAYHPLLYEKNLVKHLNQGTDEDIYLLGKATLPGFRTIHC
As to the kind of experiment: Inhibition of recombinant human N-terminal His tagged ST6GAL1 (44 to 406 residues) by UPLC-based assay.

In assay [2] the target is T2, Sialyltransferase ST3Gal-I (Rattus norvegicus) (UniProt Q6H8N0).
T2 sequence (whole entry): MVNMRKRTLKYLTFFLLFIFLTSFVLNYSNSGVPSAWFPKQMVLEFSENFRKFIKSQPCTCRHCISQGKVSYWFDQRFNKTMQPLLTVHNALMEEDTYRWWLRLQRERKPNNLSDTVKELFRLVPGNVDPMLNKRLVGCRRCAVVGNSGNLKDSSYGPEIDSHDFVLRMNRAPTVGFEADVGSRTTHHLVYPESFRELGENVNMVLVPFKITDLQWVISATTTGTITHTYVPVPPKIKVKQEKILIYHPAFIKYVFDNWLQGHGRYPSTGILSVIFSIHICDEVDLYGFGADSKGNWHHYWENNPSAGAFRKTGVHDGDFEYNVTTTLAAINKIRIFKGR
The experiment in a line: Inhibition of rat ST3GAL1 at 500 uM by UPLC-based assay relative to control.

In assay [3] the test system is MDA-MB-231. The experiment in a line: Antimigratory activity against human MDA-MB-231 cells at 60 uM incubated for 16 hrs by transwell migration assay. The format is functional, cell-based.
The target in assay [4] is T3, Integrin beta-3 (Homo sapiens) (UniProt P05106).
T3 sequence (whole entry): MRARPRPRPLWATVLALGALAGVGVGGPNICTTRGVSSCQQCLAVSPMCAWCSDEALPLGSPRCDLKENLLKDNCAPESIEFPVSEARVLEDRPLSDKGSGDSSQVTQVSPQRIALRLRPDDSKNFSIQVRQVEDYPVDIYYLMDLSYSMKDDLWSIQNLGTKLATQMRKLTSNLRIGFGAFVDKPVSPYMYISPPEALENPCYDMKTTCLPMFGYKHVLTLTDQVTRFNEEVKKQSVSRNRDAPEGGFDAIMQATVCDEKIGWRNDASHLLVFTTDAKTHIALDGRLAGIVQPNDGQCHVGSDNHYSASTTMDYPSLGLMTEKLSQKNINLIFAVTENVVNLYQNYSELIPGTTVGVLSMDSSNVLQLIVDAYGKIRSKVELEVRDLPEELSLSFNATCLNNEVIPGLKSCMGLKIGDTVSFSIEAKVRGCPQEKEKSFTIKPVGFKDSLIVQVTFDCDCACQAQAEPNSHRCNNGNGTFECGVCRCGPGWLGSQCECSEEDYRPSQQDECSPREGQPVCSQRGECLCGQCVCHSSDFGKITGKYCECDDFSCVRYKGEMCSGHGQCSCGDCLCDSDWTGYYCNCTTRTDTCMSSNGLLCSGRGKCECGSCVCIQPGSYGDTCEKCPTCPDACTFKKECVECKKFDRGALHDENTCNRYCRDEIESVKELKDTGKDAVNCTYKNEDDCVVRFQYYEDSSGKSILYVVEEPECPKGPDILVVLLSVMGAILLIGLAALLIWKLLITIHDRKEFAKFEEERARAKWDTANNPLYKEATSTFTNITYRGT
The experiment in a line: Inhibition of integrin beta-3 in human MDA-MB-231 cells assessed as decrease in sialylation level incubated for 48 hrs by Western blot analysis. The format is cell-based. As to conditions: dose 20-80 µM. On the technique in general: A western blot detects proteins with antibodies after separation by electrophoresis.

For assay [5], the target named is Focal adhesion kinase 1 (Homo sapiens) (UniProt Q05397). The experiment in a line: Inhibition of FAK phosphorylation at Y576/577 residue in human MDA-MB-231 cells incubated for 2 hrs by Western blot analysis. The format is cell-based. As to conditions: dose 20-80 µM.
The test system of assay [6] is MDA-MB-231. The experiment in a line: Effect on total paxillin expression level in human MDA-MB-231 cells at 20 to 80 uM incubated for 2 hrs by Western blot analysis. The format is functional, cell-based. As to conditions: dose 20-80 µM.

What is called IC50 is the concentration needed to halve the response being measured. As a reminder, the inhibition is the share of the control response that was lost under treatment.

Activity calls are given as the source filed them. The calls are words filed in the database; no cut-off is given here.

Focal adhesion kinase 1 (Homo sapiens), sequence (Q05397 2-1052 limits assumed): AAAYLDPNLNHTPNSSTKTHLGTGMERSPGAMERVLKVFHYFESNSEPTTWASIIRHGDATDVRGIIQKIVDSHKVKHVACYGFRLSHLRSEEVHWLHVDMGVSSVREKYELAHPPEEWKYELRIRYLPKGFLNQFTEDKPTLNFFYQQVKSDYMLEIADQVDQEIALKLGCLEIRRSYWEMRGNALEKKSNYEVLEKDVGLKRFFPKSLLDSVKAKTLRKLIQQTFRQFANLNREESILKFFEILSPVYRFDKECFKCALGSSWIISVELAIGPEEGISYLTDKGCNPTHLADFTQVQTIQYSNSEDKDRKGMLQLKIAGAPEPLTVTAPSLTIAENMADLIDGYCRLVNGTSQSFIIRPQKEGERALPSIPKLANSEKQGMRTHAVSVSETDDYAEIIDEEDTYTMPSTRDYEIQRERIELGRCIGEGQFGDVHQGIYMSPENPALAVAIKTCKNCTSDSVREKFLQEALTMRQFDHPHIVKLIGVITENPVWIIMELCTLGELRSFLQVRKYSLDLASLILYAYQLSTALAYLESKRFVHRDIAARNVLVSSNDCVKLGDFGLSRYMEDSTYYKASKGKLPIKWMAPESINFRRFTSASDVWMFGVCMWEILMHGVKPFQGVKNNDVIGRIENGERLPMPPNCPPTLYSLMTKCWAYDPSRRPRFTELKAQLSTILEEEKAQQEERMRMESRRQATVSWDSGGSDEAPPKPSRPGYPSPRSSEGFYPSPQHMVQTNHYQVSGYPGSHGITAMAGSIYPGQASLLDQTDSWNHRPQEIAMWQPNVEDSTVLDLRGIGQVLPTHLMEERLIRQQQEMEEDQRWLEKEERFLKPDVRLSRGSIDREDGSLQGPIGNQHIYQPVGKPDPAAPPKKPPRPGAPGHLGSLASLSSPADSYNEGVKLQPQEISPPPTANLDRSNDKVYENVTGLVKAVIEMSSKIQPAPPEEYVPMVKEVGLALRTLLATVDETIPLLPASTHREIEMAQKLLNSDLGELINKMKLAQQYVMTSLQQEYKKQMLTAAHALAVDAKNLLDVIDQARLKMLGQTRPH

`C[C@H](CCCOS(=O)(=O)O)[C@H]1CC[C@H]2[C@@H]3CC[C@@H]4C[C@H](O)CC[C@]4(C)[C@H]3CC[C@]12C`: the IC50 in assay [1] came to 16.7 µM. Moreover, the inhibition was 3% in assay [2] and “Dose-Dependent Effect” in assay [5]. In assay [3], the outcome was Active. Moreover, the Activity result in assay [4] was “Dose-Dependent Effect”. Besides, the outcome in assay [6] was inactive.

The values are drawn from ChEMBL document CHEMBL5634174, “Biological evaluation of sulfonate and sulfate analogues of lithocholic acid: A bioisosterism-guided approach towards the discovery of potential sialyltransferase inhibitors for antimetastatic study” (Bioorg Med Chem Lett, 2024).
